Test results: patent US20230150929A1, “SELECTIVE NON-CYCLIC NUCLEOTIDE ACTIVATORS FOR THE CAMP SENSOR EPAC1” (The Board of Regents of The University of Texas System, priority 2020, published 2023)

Target: T1, EPAC1 (Homo sapiens, UniProt O95398)
T1 sequence (O95398 1-923): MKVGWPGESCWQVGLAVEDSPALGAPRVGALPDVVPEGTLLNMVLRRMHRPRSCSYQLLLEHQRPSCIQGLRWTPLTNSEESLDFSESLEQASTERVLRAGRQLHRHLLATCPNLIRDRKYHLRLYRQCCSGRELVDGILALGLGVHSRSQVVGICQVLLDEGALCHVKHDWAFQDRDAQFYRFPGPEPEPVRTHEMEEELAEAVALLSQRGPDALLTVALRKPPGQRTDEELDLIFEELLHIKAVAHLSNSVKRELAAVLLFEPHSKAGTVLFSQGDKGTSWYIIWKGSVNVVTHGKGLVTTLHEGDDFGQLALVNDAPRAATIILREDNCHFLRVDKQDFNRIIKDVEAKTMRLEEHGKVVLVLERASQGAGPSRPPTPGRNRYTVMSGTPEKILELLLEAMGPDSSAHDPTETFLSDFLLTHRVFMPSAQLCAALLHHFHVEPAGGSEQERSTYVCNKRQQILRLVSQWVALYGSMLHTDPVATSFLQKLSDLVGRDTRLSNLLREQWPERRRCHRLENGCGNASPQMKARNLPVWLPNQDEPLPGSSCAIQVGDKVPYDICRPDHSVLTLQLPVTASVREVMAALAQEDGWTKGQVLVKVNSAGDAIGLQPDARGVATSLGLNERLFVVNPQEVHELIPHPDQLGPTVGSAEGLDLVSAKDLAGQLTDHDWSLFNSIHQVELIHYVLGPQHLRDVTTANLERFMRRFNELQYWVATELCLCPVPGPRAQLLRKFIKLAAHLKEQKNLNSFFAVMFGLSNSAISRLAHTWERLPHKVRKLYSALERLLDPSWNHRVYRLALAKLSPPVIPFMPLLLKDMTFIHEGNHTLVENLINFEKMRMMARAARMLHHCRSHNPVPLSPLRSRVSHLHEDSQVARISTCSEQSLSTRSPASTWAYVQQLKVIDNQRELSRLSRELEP
Assay: Active Rap1 pull-down in U2OS cells stably transfected with EPAC1
Assay type: cell-based
Set-up: expressed in transfected cells; host or cells: U2OS cells (from Professor Holger Rehmann, University of Utrecht)
Conditions: for Rap1 activation in EPAC1 cells: U2OS-EPAC1, 100 µM compound, 10 min, FIG. 7; for activation of EPAC1 by compound 2 (Rap1-GTP levels): U2OS-EPAC1 cells, in the presence of EPAC1 agonist 2 (007), FIG. 4
Procedure: Series Expansion and EPAC1 vs EPAC2 Selectivity. GEF assay was used to further screen all newly synthesis analogues at 10 µM, to identify additional activating compounds to expand the series of EPAC1 agonists (FIG. 6). […] Having now identified an expanded exemplary series of compounds as potential EPAC1 activators the ability of 25e, 25f, 25g, 25n and 25u to activate EPAC1 and EPAC2 in cellular Rap1 activation assays (FIG. 7) were compared. For these U2OS cells transfected with either EPAC1 or EPAC2 (FIG. 7) was used. […] Densitometry was carried out on all immunoblots and the ratio of EPAC1 to EPAC2 activation was calculated and presented in a bar graph in FIG. 8.
Active Rap1 Pull-down. U2OS cells (from Professor Holger Rehmann, University of Utrecht) stably transfected with EPAC1 or EPAC2 were cultured in 6-well plates in DMEM, high glucose, supplemented with 10% (v/v) FBS, 1% (v/v) GlutaMAX, 1% (v/v) Penicillin-Streptomycin and 2 mg/l puromycin (to ensure selection of stable transfectants). 80% confluent cells were starved in culture medium with reduced FBS concentration (0.5 %) for 16 h and then stimulated for 10 min with either vehicle, 100 µM of studied compounds, or 50 µM of 2 in case of U2OS-EPAC1 or 100 µM of compound 4 for U2OS-EPAC2. Cells were then rinsed with ice-cold PBS and lysed in 0.5 ml cell lysis buffer (Cell Signaling Technologies) supplemented with 10 mM MgCl2 and 1 mM PMSF, followed by clearing the lysates by centrifugation. Cell lysates were incubated for 1 h (4° C., gentle agitation) with 40 µg GST-RalGDS-RBD immobilized on Glutathione Sepharose 4B (GE Healthcare) to selectively capture GTP-bound Rap1. Later on, the glutathione resin was separated from supernatant by centrifugation, washed three times with cell lysis buffer, then resuspended in 2x SDS sample loading buffer and denatured for 5 min at 95° C.
SDS-PAGE and Western Blotting. Samples were prepared by mixing equal volumes of cell lysate and 2x SDS sample loading buffer and denaturing for 5 min at 95° C., unless indicated otherwise. Protein samples were separated by SDS-PAGE on 10% (v/v) polyacrylamide gels, for EPAC1 and VASP, or on 12.5% (v/v), for Rap1, and then transferred to nitrocellulose membranes. Membranes were then blocked for 1 h at room temperature in 5% (w/v) non-fat dry milk or 5% (w/v) BSA in Tris-buffered saline containing 0.1% (v/v) Tween 20, followed by an overnight incubation with primary antibody diluted in blocking buffer at 4° C. Subsequently, the membranes were incubated with appropriate horseradish peroxidase-conjugated secondary antibodies for 1 h at room temperature. For signal detection the SuperSignal West Pico PLUS Chemiluminescent Substrate (Thermo Scientific) was used. Images were acquired using the Fusion FX7 camera platform (Vilber). Densitometry was performed with ImageJ.

| SMILES | Rap1 activation in EPAC1 cells | activation of EPAC1 by compound 2 (Rap1-GTP levels) |
| --- | --- | --- |
| COc1ccc(S(=O)(=O)NC(=O)COc2ccc3ccccc3c2)c(OC)c1 [Compound 25g, N-((2,4-Dimethoxyphenyl)sulfonyl)-2-(naphthalen-2-yloxy)acetamide] | activate EPAC1 in cells | enhanced |
| COc1ccc2ccc(OCC(=O)NS(=O)(=O)c3ccc(N)cc3OC)cc2c1 [Compound 25n, N-((4-Amino-2-methoxyphenyl)sulfonyl)-2-((7-methoxynaphthalen-2-yl)oxy)acetamide] | activate EPAC1 in cells | enhanced |
| COc1ccc2ccc(OCC(=O)NS(=O)(=O)c3ccc4ccccc4c3)cc2c1 [Compound 25q, 2-((7-Methoxynaphthalen-2-yl)oxy)-N-(naphthalen-2-ylsulfonyl)acetamide] | activate EPAC1 in cells |  |
